{
  "source": "paper PMC11134387",
  "about": "“Cancer-Stem-Cell Phenotype-Guided Discovery of a Microbiota-Inspired Synthetic Compound Targeting NPM1 for Leukemia” (JACS Au, 2024)",
  "key": {"[1]": {"tested_on": "MOLM13 (NPM1 WT)", "experiment": "Cell viability dose-response in AML cell line (NPM1 WT)", "type": "cell-based", "details": "Homo sapiens, MOLM-13; MOLM13, 48 h", "description": "One of the most paradigmatic diseases with critical involvement of CSCs is AML. Among the AML stem cell population, CD34+/CD38- are the only ones capable of inducing leukemia in vivo.[27] […] We focused on proteins that disappeared completely after treatment with the compound and whose concentration could be quantified in untreated samples. According to this profile, 340 proteins, including targets related with stemness and cancer, were identified (see Supplementary Excel file). Among them, nucleophosmin 1 (NPM1) especially attracted our attention, as it is one of the most common mutated proteins in AML.[28] To support that the inhibitory capacity of UCM-13369 observed in CSC cells (see Table S1) is mediated by NPM1, the compound was tested on OCI-AML3 and MOLM13 cell lines, as in vitro AML models bearing mutant (NPM1 C+) and wild-type (WT) protein, respectively.\nThe test compound was diluted in PBS."}, "[2]": {"tested_on": "primary CD34+ cells from AML patients", "experiment": "CFU-E colony-forming unit assay, AML patients", "type": "cell-based", "details": "Homo sapiens", "procedure": "Considering the inhibitory capacity of UCM-13369 on AML cell lines (shown in Figure 3A), the therapeutic potential was assessed in primary CD34+ cells from AML patients. Two ex vivo models were used from AML patients and healthy donors: CD34+ liquid HSC (hematopoietic stem cell) culture as a short-term model and CFU-E (colony-forming unit–erythroid) as a midterm model.\nThe test compound was diluted in PBS. […]\nPrimary cells. 1x10^6/mL total mononuclear bone marrow cells (as source of CD34+ HSCs) of healthy donors and AML patients were used. They were cultured using Stem SpanTM supplement with pencillin/streptomycin (500 U/ml), TPO (10 µg/mL), SCF (10 µg/mL), FLT3 (10 µg/mL), IL-6 (10 µg/mL) and IL-3 (10 µg/mL). After 24 h fresh medium was added. After 72 h in maintenance cells were ready to start the assays. All cells wer e maintained at 37 °C in a humidified incubator in an atmosphere of 5% CO2.\nColonospheres, mamospheres and colony formation unit assays. 30.000 cells per well of MCF-7 cells (mamos pheres), HCT-116 cells (colonospheres) and CD34+ cells from patients (colony formation units) were seeded in serum free non- adherent medium or […]\nMethoCult (Stem Cell). […]"}, "[3]": {"target": "T1, NPM1 C-end WT (Homo sapiens, UniProt P06748)", "T1 construct": "the C-end domain (residues 225- 294); 6xHis (N); made in house; host or cells: E. coli BL21(DE3)", "T1 sequence (P06748 225-294)": "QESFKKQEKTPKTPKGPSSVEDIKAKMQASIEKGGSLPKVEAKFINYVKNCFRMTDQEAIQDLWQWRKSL", "experiment": "Isothermal titration calorimetry, NPM1 C-end WT", "type": "binding", "details": "ITC, 25 °C", "description": "To confirm a direct interaction of UCM-13369 with NPM1 and to address which domain of the protein would be responsible for binding the compound, pure protein samples of the pentameric N-end domain of NPM1, along with the C-terminal DNA-binding domains of WT and mutant NPM1 C+, were used in calorimetry assays. […] This is indicative of a lower diversity in the chemical environment of amide protons consistent with the previously reported protein unfolding.[29] […] On the other hand, the pentameric construct of the NPM1 N-end, which lacks the AML-related region, yielded a much lower binding affinity (KD ca. 100 μM range, Figure 3D).\nITC experiments were performed in a Nano ITC Low Volume (TA Instruments) at 25 °C. […]\nThe purity of the protein samples was checked by SDS–PAGE analysis (Figure S3) and protein quantification was performed using the Bradford protein assay.5 NPM molar concentration was expressed as the pentameric form for NPM1 WT N-end and as a monomer for NPM1 C-end WT and mutant. […]\nAfter extraction with acetonitrile and acidification, samples were desalted and concentrated with C18 tips. Mass spectra were recorded in a Hybrid Quadrupole-Orbitrap™ Mass Spectrometer (Thermo Scientific, Waltham, Massachusetts, USA)"}},
  "data": [
    {"smiles": "COc1ccc(C2Cc3[nH]c4ccccc4c3C(CCNCC3CC3)C2N)cc1", "note": "(stereo not drawn) [4b, 4-{2-[(Cyclopropylmethyl)amino]ethyl}-2-(4-methoxyphenyl)-2,3,4,9-tetrahydro-1H-carbazol-3-amine]", "values": [
      {"measurement": "IC50", "setting": "[1]", "result": 10.9, "unit": "µM"},
      {"measurement": "IC50", "setting": "[2]", "result": 0.3, "unit": "µM"},
      {"measurement": "Kd", "setting": "[3]", "result": 37, "unit": "µM"}
    ]}
  ]
}
